# Experimental data as given in patent US20230250060A1 (IFM Due, Inc., priority 2022, published 2023).
# Target: T1, STING (Homo sapiens, UniProt Q86WV6, G230A/H232R/R293Q/R71H)
# T1 construct: host or cells: THP1-Dual KO-IFNAR2 cells
# Assay: STING reporter assay (luciferase) in THP1-Dual KO-IFNAR2 cells stimulated with 2′3′cGAMP
# Type: cell-based
# Details: 2′3′cGAMP 15 μM final, 24 h, luciferase reporter activity, read-out: Pharmaron, THP1_IFNAR2 STING 24 h Luci Normalized: GeoMean EC50
# How it was run: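 THP1-Dual KO-IFNAR2 cells (2×10E6 cells/mL) exposed to compounds at 0.0017-100 μM final and stimulated with 2′3′cGAMP (15 μM final) delivered via Lipofectamine 2000. After 24 h at 37° C., secreted luciferase in supernatant read with QUANTI-Luc Plus; EC50 derived from luminescence.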
# T1 sequence (Q86WV6 whole entry R71H/G230A/H232R/R293Q): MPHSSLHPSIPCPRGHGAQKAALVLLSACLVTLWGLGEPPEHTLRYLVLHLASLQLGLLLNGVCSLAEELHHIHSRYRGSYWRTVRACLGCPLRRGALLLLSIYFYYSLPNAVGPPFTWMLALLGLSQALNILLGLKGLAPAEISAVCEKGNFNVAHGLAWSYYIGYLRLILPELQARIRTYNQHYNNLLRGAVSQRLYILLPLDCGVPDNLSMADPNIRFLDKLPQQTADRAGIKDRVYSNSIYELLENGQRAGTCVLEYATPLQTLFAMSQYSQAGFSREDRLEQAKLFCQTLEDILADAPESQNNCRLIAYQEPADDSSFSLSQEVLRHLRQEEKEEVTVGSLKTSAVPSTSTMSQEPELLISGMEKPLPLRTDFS
row,SMILES,EC50 [nM]
1,"O=C(Nc1c[nH]c2ccc(OCc3ccc(C(F)(F)F)cc3)cc12)c1ccn[nH]1 [Compound 137, N-(5-((4-(trifluoromethyl)benzyl)oxy)-1H-indol-3-yl)-1H-pyrazole-5-carboxamide]",200 to 1000
2,"O=C(Nc1c[nH]c2ccc(O[C@H]3C[C@@H](c4ccc(C(F)(F)F)nc4)C3)cc12)c1ccccc1 [Compound 216, N-(5-(cis-3-(6-(trifluoromethyl)pyridin-3-yl)cyclobutoxy)-1H-indol-3-yl)benzamide]",40 to 200
3,"N#CC12CC(C(=O)Nc3c[nH]c4ccc(OCCc5ccc(C(F)(F)F)cc5)cc34)(C1)C2 [Compound 106, 3-cyano-N-(5-(4-(trifluoromethyl)phenethoxy)-1H-indol-3-yl)bicyclo[1.1.1]pentane-1-carboxamide]",200 to 1000
4,"O=C(Nc1c[nH]c2ccc(O[C@H]3C[C@H](c4ccc(C(F)(F)F)cc4)C3)cc12)C1CC2(COC2)C1 [Compound 211, N-{5-[(1R,3R)-3-[4-(trifluoromethyl)phenyl]cyclobutoxy]-1H-indol-3-yl}-2-oxaspiro[3.3]heptane-6-carboxamide]",40 to 200
5,"CC12CC(C(=O)Nc3c[nH]c4ccc(OCC[C@@H]5C[C@@H]6CN(CC(F)(F)F)C[C@@H]6C5)cc34)(C1)C2 [Compound 142, 3-methyl-N-(5-(2-((3aR,5r,6aS)-2-(2,2,2-trifluoroethyl)octahydrocyclopenta[c]pyrrol-5-yl)ethoxy)-1H-indol-3-yl)bicyclo[1.1.1]pentane-1-carboxamide]",200 to 1000
6,"Cn1ccnc1C(=O)Nc1c[nH]c2ccc(OCc3ccc(C(F)(F)F)cc3)cc12 [Compound 136, 1-methyl-N-(5-((4-(trifluoromethyl)benzyl)oxy)-1H-indol-3-yl)-1H-imidazole-2-carboxamide]",200 to 1000
7,"Cc1noc(C)c1C(=O)Nc1c[nH]c2ccc(O[C@H]3C[C@@H](c4ccc(C(F)(F)F)cc4)C3)cc12 [Compound 177, 3,5-dimethyl-N-(5-((1s,3s)-3-(4-(trifluoromethyl)phenyl)cyclobutoxy)-1H-indol-3-yl)isoxazole-4-carboxamide]",40 to 200
8,"O=C(CC1CC1)Nc1c[nH]c2ccc(OCCc3ccc(C(F)(F)F)cc3)cc12 [Compound 125, 2-cyclopropyl-N-(5-(4-(trifluoromethyl)phenethoxy)-1H-indol-3-yl)acetamide]",40 to 200
9,"O=C(CC1CC1)Nc1c[nH]c2ccc(O[C@H]3C[C@@H](c4ccc(C(F)(F)F)cc4)C3)cc12 [Compound 102, 2-cyclopropyl-N-(5-((1s,3s)-3-(4-(trifluoromethyl)phenyl)cyclobutoxy)-1H-indol-3-yl)acetamide]",40 to 200
10,"Cc1nnc(C(=O)Nc2c[nH]c3ccc(O[C@H]4C[C@H](c5ccc(C(F)(F)F)cc5)C4)cc23)s1 [Compound 127, 5-methyl-N-(5-((1r,3r)-3-(4-(trifluoromethyl)phenyl)cyclobutoxy)-1H-indol-3-yl)-1,3,4-thiadiazole-2-carboxamide]",200 to 1000
11,"O=C(Nc1c[nH]c2ccc(OCCc3ccc(C(F)(F)F)cc3)cc12)c1nccs1 [Compound 110, N-(5-(4-(trifluoromethyl)phenethoxy)-1H-indol-3-yl)thiazole-2-carboxamide]",200 to 1000
12,"O=C(Nc1c[nH]c2ccc(COCc3ccc(C(F)(F)F)cc3)cc12)C12CC(c3ccccc3)(C1)C2 [Compound 130, 3-phenyl-N-(5-(((4-(trifluoromethyl)benzyl)oxy)methyl)-1H-indol-3-yl)bicyclo[1.1.1]pentane-1-carboxamide]",40 to 200
13,"O=C(Nc1c[nH]c2ccc(O[C@H]3C[C@H](c4ccc(C(F)(F)F)cc4)C3)cc12)C1CC12CCC2 (stereo partly drawn) [Compound 230, N-{5-[(1R,3R)-3-[4-(trifluoromethyl)phenyl]cyclobutoxy]-1H-indol-3-yl}spiro[2.3]hexane-1-carboxamide]",40 to 200
14,"O=C(Nc1c[nH]c2ccc(O[C@H]3C[C@@H](c4ccc(C(F)(F)F)nc4)C3)cc12)c1ccc(C(F)(F)F)cc1 [Compound 214, 4-(trifluoromethyl)-N-(5-(cis-3-(6-(trifluoromethyl)pyridin-3-yl)cyclobutoxy)-1H-indol-3-yl)benzamide]",40 to 200
15,"O=C(Nc1c[nH]c2ccc(OCc3ccc(C(F)(F)F)cc3)cc12)c1nccs1 [Compound 141, N-(5-((4-(trifluoromethyl)benzyl)oxy)-1H-indol-3-yl)thiazole-2-carboxamide]",200 to 1000
16,"O=C(Nc1c[nH]c2ccc(O[C@H]3C[C@@H](c4ccc(C(F)(F)F)cc4)C3)cc12)c1ncccc1F [Compound 174, 3-fluoro-N-(5-((1s,3s)-3-(4-(trifluoromethyl)phenyl)cyclobutoxy)-1H-indol-3-yl)picolinamide]",200 to 1000
17,"Cc1oncc1C(=O)Nc1c[nH]c2ccc(O[C@H]3C[C@@H](c4ccc(C(F)(F)F)cc4)C3)cc12 [Compound 176, 5-methyl-N-(5-((1s,3s)-3-(4-(trifluoromethyl)phenyl)cyclobutoxy)-1H-indol-3-yl)isoxazole-4-carboxamide]",5000 to 100000
18,"O=C(Nc1c[nH]c2ccc(O[C@H]3C[C@H](c4ccc(C(F)(F)F)cc4)C3)cc12)c1ccccn1 [Compound 228, N-{5-[(1R,3R)-3-[4-(trifluoromethyl)phenyl]cyclobutoxy]-1H-indol-3-yl}pyridine-2-carboxamide]",200 to 1000
19,"O=C(Nc1c[nH]c2ccc(O[C@H]3C[C@H](c4ccc(C(F)(F)F)nc4)C3)cc12)c1ccccc1 [Compound 215, N-(5-(trans-3-(6-(trifluoromethyl)pyridin-3-yl)cyclobutoxy)-1H-indol-3-yl)benzamide]",200 to 1000
20,"O=C(Nc1c[nH]c2ccc(O[C@H]3C[C@H](c4ccc(C(F)(F)F)cc4)C3)cc12)c1nccs1 [Compound 232, N-{5-[(1R,3R)-3-[4-(trifluoromethyl)phenyl]cyclobutoxy]-1H-indol-3-yl}-1,3-thiazole-2-carboxamide]",40 to 200
21,"O=C(Nc1c[nH]c2ccc(OCc3ccc(C(F)(F)F)cc3)cc12)c1cccnc1 [Compound 148, N-(5-((4-(trifluoromethyl)benzyl)oxy)-1H-indol-3-yl)nicotinamide]",200 to 1000

# The remaining lines, values ahead:
row,EC50 [nM],SMILES
1,200 to 1000,"O=C(Nc1c[nH]c2ccc(OCc3ccc(C(F)(F)F)cc3)cc12)c1ccccc1 [Compound 218, N-(5-((4-(trifluoromethyl)benzyl)oxy)-1H-indol-3-yl)benzamide]"
2,200 to 1000,"O=C(CC1CC1)Nc1c[nH]c2ccc(OCc3ccc(C(F)(F)F)cc3)cc12 [Compound 150, 2-cyclopropyl-N-(5-((4-(trifluoromethyl)benzyl)oxy)-1H-indol-3-yl)acetamide]"
3,200 to 1000,"O=C(Nc1c[nH]c2ccc(CCOc3ccc(C(F)(F)F)cc3)cc12)c1cccnc1 [Compound 195, N-(5-(2-(4-(trifluoromethyl)phenoxy)ethyl)-1H-indol-3-yl)nicotinamide]"
4,200 to 1000,"O=C(Nc1c[nH]c2ccc(OCC[C@@H]3C[C@@H]4CN(CC(F)(F)F)C[C@@H]4C3)cc12)c1nccs1 [Compound 188, N-(5-(2-((3aR,5r,6aS)-2-(2,2,2-trifluoroethyl)octahydrocyclopenta[c]pyrrol-5-yl)ethoxy)-1H-indol-3-yl)thiazole-2-carboxamide]"
5,200 to 1000,"O=C(Nc1c[nH]c2ccc(OCC[C@@H]3C[C@@H]4CN(CC(F)(F)F)C[C@@H]4C3)cc12)C1CC2(COC2)C1 [Compound 206, N-(5-(2-((3aR,5r,6aS)-2-(2,2,2-trifluoroethyl)octahydrocyclopenta[c]pyrrol-5-yl)ethoxy)-1H-indol-3-yl)-2-oxaspiro[3.3]heptane-6-carboxamide]"
6,200 to 1000,"O=C(Nc1c[nH]c2ccc(CCOc3ccc(C(F)(F)F)cc3)cc12)c1nccs1 [Compound 201, N-(5-(2-(4-(trifluoromethyl)phenoxy)ethyl)-1H-indol-3-yl)thiazole-2-carboxamide]"
7,200 to 1000,"O=C(Nc1c[nH]c2ccc(OCC[C@@H]3C[C@@H]4CN(CC(F)(F)F)C[C@@H]4C3)cc12)c1ccccc1 [Compound 224, N-(5-(2-((3aR,5r,6aS)-2-(2,2,2-trifluoroethyl)octahydrocyclopenta[c]pyrrol-5-yl)ethoxy)-1H-indol-3-yl)benzamide]"
8,200 to 1000,"O=C(Nc1c[nH]c2ccc(OCC[C@@H]3C[C@@H]4CN(CC(F)(F)F)C[C@@H]4C3)cc12)C12CC(C1)C2 [Compound 186, N-(5-(2-((3aR,5r,6aS)-2-(2,2,2-trifluoroethyl)octahydrocyclopenta[c]pyrrol-5-yl)ethoxy)-1H-indol-3-yl)bicyclo[1.1.1]pentane-1-carboxamide]"
9,200 to 1000,"CC12CC(C(=O)Nc3c[nH]c4ccc(OCc5ccc(C(F)(F)F)cc5)cc34)(C1)C2 [Compound 163, 3-methyl-N-(5-((4-(trifluoromethyl)benzyl)oxy)-1H-indol-3-yl)bicyclo[1.1.1]pentane-1-carboxamide]"
10,200 to 1000,"O=C(Nc1c[nH]c2ccc(OCC[C@@H]3C[C@@H]4CN(CC(F)(F)F)C[C@@H]4C3)cc12)c1cncs1 [Compound 190, N-(5-(2-((3aR,5r,6aS)-2-(2,2,2-trifluoroethyl)octahydrocyclopenta[c]pyrrol-5-yl)ethoxy)-1H-indol-3-yl)thiazole-5-carboxamide]"
11,200 to 1000,Cn1cc(C(=O)Nc2c[nH]c3ccc(O[C@H]4C[C@@H](c5ccc(C(F)(F)F)cc5)C4)cc23)nn1 [Compound 241]
12,200 to 1000,"O=C(Nc1c[nH]c2ccc(OCc3ccc(C(F)(F)F)cc3)cc12)c1cncs1 [Compound 154, N-(5-((4-(trifluoromethyl)benzyl)oxy)-1H-indol-3-yl)thiazole-5-carboxamide]"
13,200 to 1000,"O=C(Nc1c[nH]c2ccc(OCC[C@@H]3C[C@@H]4CN(CC(F)(F)F)C[C@@H]4C3)cc12)C1CC2(CCC2)C1 [Compound 157, N-(5-(2-((3aR,5r,6aS)-2-(2,2,2-trifluoroethyl)octahydrocyclopenta[c]pyrrol-5-yl)ethoxy)-1H-indol-3-yl)spiro[3.3]hexane-2-carboxamide]"
